In one assay the target is T1, recombinant human 5-HT1A (Homo sapiens, UniProt P08908).
T1 construct: expressed in transfected cells; host or cells: CHO
T1 sequence (P08908 1-422): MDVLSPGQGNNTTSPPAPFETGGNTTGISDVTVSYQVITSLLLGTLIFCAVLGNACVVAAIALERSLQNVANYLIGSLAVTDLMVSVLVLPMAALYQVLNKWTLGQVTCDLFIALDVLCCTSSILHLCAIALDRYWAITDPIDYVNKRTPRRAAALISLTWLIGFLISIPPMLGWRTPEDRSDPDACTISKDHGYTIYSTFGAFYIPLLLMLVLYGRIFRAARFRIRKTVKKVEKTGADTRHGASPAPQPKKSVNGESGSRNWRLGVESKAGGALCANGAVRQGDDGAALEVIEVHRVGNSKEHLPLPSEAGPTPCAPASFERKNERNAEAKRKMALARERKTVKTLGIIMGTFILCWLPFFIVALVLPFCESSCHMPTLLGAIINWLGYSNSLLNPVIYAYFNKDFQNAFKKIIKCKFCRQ
The assay is described as follows: Radioligand binding to serotonin receptor 5-HT1A ([3H] 8-OH-DPAT, CHO membranes). To be noted: for inhibition at 10 µM: read-out: 5-HT1A % inhibition; for 5-HT1A % inhibition: 10 µM ligand. From the text:
J Pharmacol Exp Ther. 306(1): 301-309, 2003]. […] Metergoline is used as positive control.

Assay [1] has as its target T2, recombinant human 5-HT2C receptor (Homo sapiens, UniProt P28335).
T2 construct: expressed in transfected cells; host or cells: CHO-K1
T2 sequence (P28335 33-458): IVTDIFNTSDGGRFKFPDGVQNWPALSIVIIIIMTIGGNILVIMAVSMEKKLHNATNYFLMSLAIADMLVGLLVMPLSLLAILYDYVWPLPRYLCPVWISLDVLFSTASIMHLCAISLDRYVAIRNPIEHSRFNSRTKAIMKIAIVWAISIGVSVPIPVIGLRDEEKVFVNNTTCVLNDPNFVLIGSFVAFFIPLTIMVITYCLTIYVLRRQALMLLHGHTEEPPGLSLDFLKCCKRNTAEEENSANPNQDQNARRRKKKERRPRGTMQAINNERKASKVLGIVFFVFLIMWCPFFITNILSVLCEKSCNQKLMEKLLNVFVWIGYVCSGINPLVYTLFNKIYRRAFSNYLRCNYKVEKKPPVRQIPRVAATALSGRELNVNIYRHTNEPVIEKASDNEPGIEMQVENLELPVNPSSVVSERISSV
Put plainly: Radioligand binding to serotonin receptor 5-HT2C ([3H] Mesulergine, CHO-K1 membranes). From the text: J Neurochem. 69: 1449 - 1458, 1997]. […] SB242084 is used as positive control.

The target in assay [2] is T3, recombinant human 5-HT6 receptor (Homo sapiens, UniProt P50406).
T3 construct: expressed in transfected cells; host or cells: HeLa
The assay is described as follows: Radioligand binding to serotonin receptor 5-HT6 ([3H] Lysergic acid diethylamide, HeLa membranes). The following applies: for 5-HT6 % inhibition: 10 µM ligand. The source says:
Mol Pharmacol. 43:320-327, 1993]. […] Methiothepin is used as positive control.

In assay [3] the target is T4, recombinant human 5-HT2B receptor (Homo sapiens, UniProt P41595).
T4 construct: expressed in transfected cells; host or cells: CHO-K1
The assay is described as follows: Radioligand binding to serotonin receptor 5-HT2B ([3H] Lysergic acid diethylamide, CHO-K1 membranes).
Description: For this purpose membrane species are prepared from CHO-K1 cells comprising recombinant human 5-HT2B receptor by homogenization of recombinant cells in glass homogenizer with the subsequent separation of plasmatic membranes from cell nuclei, mitochondrias and cell wreckages by differential centrifugation. […] After incubation the samples are filtered in vacuo on glass-microfiber filters G/F (Millipor, USA), filters are washed three times with cold solution of medium and radioactivity is measured by scintillation counter MicroBeta 340 (Perkin Elmer, USA). […] Ketanserin is used as positive control. The tested compounds' binding to the receptor is determined by their ability to displace the radioligand and is expressed in percent of displacement (%I). Values of %I are calculated according to the following equation: %I = (TA-CA)/(TA-NA)*100, [formula] wherein: TA - is the overall radioactivity in the presence of radioligand only, CA - is the radioactivity in the presence of radioligand and tested compound and NA - is the radioactivity in the presence of radioligand and Serotonin (10 µM).

The next assay deals with T5, human 5-HT7 receptor (Homo sapiens, UniProt P34969).
T5 construct: expressed in transfected cells; host or cells: CHO
Put plainly: Radioligand binding to serotonin receptor 5-HT7 ([3H] Lysergic acid diethylamide, CHO membranes). The following applies: for inhibition at 10 µM: read-out: 5-HT7 % inhibition; for 5-HT7 % inhibition: 10 µM ligand. From the text:
For this purpose sDNA of human 5-HT7 receptor is expressed in CHO cells as it was described in [Shen Y, Monsma FJ Jr, Metcalf MA, Jose PA, Hamblin MW, and Sibley DR. […] J. Biol. Chem. 1993, 268, 18200 - 18204]. […] J. Pharmacol. Exp. Ther. 1994, 268:1403-1410]. […] Methiothepin is used as positive control.

For assay [4], the target named is T6, serotonin receptor 5-HT1B (Rattus norvegicus, UniProt P28564).
T6 construct: membrane species are prepared from rat brains (Wistar) by homogenization of species of rat brain-cortices; from tissue; host or cells: rat (Wistar) brain cortex
The assay is described as follows: Radioligand binding to serotonin receptor 5-HT1B ([125I] cyanopindolol, rat brain cortex membranes). The following applies: for inhibition at 10 µM: read-out: 5-HT1B % inhibition; for 5-HT1B % inhibition: 10 µM ligand. From the text: Serotonin is used as positive control.

Assay [5] has as its target T7, recombinant human 5-HT2A receptor (Homo sapiens, UniProt P28223).
T7 construct: expressed in transfected cells; host or cells: CHO-K1
Put plainly: Radioligand binding to serotonin receptor 5-HT2A ([3H] Ketanserin, CHO-K1 membranes). To be noted: 10 µM ligand. From the text:
9-C. […] J Neurochem. […] Ketanserin is used as positive control.

The mark [6] stands for this setting: read-out: 5-HT2B % inhibition, 10 µM ligand.

Molecules are shown by their SMILES. Where a name gives a salt, the structure may show the parent alone. Read-outs that look alike come from different tables or passages of the source.

Usually inhibition stands for the drop in the measured response relative to a control, in per cent.

T7 sequence (P28223 whole entry): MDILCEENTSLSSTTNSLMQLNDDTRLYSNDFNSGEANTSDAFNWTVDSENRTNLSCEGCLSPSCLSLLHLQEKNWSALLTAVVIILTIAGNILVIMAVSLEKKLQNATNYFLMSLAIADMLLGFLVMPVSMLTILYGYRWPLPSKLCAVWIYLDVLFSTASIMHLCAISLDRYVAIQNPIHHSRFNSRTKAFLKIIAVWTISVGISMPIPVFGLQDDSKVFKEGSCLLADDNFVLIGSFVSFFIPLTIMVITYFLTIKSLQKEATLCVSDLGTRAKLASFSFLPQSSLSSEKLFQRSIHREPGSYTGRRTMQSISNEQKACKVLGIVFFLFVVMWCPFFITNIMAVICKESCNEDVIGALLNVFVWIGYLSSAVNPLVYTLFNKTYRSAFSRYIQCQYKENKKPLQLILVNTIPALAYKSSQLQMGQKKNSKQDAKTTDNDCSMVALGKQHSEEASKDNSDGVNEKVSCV
T6 sequence (P28564 whole entry): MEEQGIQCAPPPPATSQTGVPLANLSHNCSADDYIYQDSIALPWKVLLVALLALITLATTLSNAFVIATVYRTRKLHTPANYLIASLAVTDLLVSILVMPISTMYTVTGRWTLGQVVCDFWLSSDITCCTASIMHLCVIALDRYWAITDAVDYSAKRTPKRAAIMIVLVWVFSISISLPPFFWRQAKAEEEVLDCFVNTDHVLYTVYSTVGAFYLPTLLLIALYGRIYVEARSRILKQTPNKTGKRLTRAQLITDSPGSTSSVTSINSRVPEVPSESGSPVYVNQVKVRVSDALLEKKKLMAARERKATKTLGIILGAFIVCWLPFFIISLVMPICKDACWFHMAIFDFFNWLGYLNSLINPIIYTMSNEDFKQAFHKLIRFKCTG
T4 sequence (P41595 whole entry): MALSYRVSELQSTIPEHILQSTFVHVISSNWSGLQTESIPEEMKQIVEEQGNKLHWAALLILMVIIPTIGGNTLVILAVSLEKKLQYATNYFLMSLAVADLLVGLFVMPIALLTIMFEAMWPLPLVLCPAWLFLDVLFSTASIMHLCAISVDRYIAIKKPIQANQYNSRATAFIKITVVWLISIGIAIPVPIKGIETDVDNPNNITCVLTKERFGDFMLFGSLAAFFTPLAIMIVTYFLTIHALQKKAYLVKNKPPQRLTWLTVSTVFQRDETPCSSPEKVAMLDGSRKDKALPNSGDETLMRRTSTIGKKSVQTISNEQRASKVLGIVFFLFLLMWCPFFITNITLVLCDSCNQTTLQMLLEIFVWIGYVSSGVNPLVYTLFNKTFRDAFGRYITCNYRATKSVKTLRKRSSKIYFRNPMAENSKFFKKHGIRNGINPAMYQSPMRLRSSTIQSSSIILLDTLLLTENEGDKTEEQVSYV
T5 sequence (P34969 whole entry): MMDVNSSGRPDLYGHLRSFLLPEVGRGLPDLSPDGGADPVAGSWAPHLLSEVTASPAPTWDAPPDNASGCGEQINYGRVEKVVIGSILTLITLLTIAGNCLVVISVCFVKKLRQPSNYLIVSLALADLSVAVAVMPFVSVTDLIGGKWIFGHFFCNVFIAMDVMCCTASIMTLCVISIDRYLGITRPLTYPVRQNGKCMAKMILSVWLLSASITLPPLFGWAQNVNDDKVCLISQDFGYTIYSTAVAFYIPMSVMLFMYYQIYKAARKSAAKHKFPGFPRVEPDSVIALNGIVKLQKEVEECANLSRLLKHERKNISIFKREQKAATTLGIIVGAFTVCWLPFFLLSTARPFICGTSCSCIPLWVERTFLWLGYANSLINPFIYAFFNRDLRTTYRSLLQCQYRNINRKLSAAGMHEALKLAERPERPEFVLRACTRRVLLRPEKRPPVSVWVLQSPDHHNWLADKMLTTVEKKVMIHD
T3 sequence (P50406 whole entry): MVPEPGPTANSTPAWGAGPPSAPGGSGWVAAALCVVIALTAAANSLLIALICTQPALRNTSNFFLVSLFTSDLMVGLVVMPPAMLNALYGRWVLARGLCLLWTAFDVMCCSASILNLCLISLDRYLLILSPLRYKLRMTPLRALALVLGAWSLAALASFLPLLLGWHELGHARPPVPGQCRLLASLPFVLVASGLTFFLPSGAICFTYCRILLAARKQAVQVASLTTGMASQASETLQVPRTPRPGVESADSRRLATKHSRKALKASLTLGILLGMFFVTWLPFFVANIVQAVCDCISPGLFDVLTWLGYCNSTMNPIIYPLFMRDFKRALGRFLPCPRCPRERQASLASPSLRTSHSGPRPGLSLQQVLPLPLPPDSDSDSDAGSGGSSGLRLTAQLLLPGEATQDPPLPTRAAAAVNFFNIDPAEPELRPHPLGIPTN

In the case of `COc1ccc(CCn2c3c(c4cc(C)ccc42)CN(C)CC3)cc1` [1.1.2(1-14)·HCl], the inhibition at 10 µM is 57% at recombinant human 5-HT1A; 97% in assay [1] (read-out: 5-HT2C % inhibition); 108% in assay [2] (read-out: 5-HT6 % inhibition); 97% in assay [3] (read-out: 5-HT2B % inhibition); 100% on human 5-HT7 receptor; 52% in assay [4].

For `CN1CCc2c(c3cc(F)ccc3n2CCCc2ccccc2)C1` [1.3.3(8)·HCl], the inhibition at 10 µM was -4% at recombinant human 5-HT1A; 97% in assay [1] (read-out: 5-HT2C % inhibition); 93% in assay [2] (read-out: 5-HT6 % inhibition); 96% in assay [3] (read-out: 5-HT2B % inhibition); 83% at human 5-HT7 receptor; 97% in assay [5]. Besides, the inhibition at 10 µM in assay [4] worked out at 12%.

Consider `CN1CCc2c(c3cc(C(F)(F)F)ccc3n2CCc2ccccc2)C1` [1.1.2(1-7)·HCl, 2-methyl-8-trifluoromethyl-5-phenethyl-1,2,3,4-tetrahydro-1H-pyrido[4,3-b]indole], for which the inhibition at 10 µM in assay [1] (read-out: 5-HT2C % inhibition) is 92%; in assay [3] (read-out: 5-HT2B % inhibition), 89%; on human 5-HT7 receptor, 94%; in assay [5], 91%; in assay [4], 13%.

On to `Cc1ccc2c(c1)c1c(n2Cc2ccccc2)CCCN(C)C1` [1.10(4)·HCl], for which the inhibition at 10 µM at recombinant human 5-HT1A came out at 19%; in assay [1] (read-out: 5-HT2C % inhibition) it was 98%; in assay [2] (read-out: 5-HT6 % inhibition) it was 69%; in assay [3] (read-out: 5-HT2B % inhibition) it was 70%; on human 5-HT7 receptor, 75%; in assay [5], 91%. In assay [4], the inhibition at 10 µM was 31%.

For `CN1CCc2c(c3cc(F)ccc3n2CC(O)c2ccccc2)C1` (stereo not shown) [1.1.2(1-9)], the 5-HT1A % inhibition at recombinant human 5-HT1A is -2%. Besides, in assay [2], the 5-HT6 % inhibition was determined as 89%. Further, the 5-HT7 % inhibition on human 5-HT7 receptor was 84%. Further, the 5-HT2A % inhibition in assay [5] was found to be 97%. For the same compound, in assay [4], the 5-HT1B % inhibition was 5%.

Regarding `Cc1ccc2c(c1)c1c(n2CC(O)c2ccccc2)CCN(C)C1` (stereo not shown) [1.1.2(1-10), 2,8-dimethyl-5-[(2-phenyl-2-hydroxy)ethyl]-1,2,3,4-tetrahydro-1H-pyrido[4,3-b]indole], at recombinant human 5-HT1A, the 5-HT1A % inhibition is 24%. Further, the 5-HT6 % inhibition in assay [2] was 102%. This compound also yielded a 5-HT7 % inhibition on human 5-HT7 receptor of 96%. Further, in assay [5], the 5-HT2A % inhibition is listed as 97%. Further, in assay [4], the 5-HT1B % inhibition worked out at 41%.

In the case of `Cc1ccc2c(c1)c1c(n2CCc2ccc(F)cc2)CCN(C)C1` [1.1.2(1-16)·HCl], the inhibition at 10 µM is 37% on recombinant human 5-HT1A; 99% in assay [1] (read-out: 5-HT2C % inhibition); 103% in assay [2] (read-out: 5-HT6 % inhibition); 91% in assay [3] (read-out: 5-HT2B % inhibition); 95% on human 5-HT7 receptor; 99% in assay [5]. For the same compound, the inhibition at 10 µM in assay [4] is 36%.

As to `Cc1ccc(CCn2c3c(c4cc(F)ccc42)CN(C)CCC3)cn1` [1.2.2(4-2)·2HCl], the figures for the inhibition at 1 µM in assay [1] (read-out: 5-HT2C % inhibition) and in assay [2] (read-out: 5-HT6 % inhibition) were 78% and 84%, respectively. For the same compound, the inhibition at 10 µM in assay [4] worked out at 60%.

For the compound `Cc1ccc2c(c1)c1c(n2C#Cc2ccccc2)CCN(C)C1` [1.1(4)], the 5-HT1A % inhibition at recombinant human 5-HT1A was 38%. Moreover, the 5-HT2C % inhibition in assay [1] (10 µM ligand) turned out to be 99%. Further, the 5-HT6 % inhibition in assay [2] is on record as 97%. In addition, in assay [3] (10 µM ligand), the 5-HT2B % inhibition stood at 86%. Further, at human 5-HT7 receptor, the 5-HT7 % inhibition was found to be 93%. Further, the 5-HT2A % inhibition in assay [5] is listed as 99%. The compound further gave a 5-HT1B % inhibition in assay [4] of 26%.

With `Cc1ccc2c(c1)c1c(n2CCCc2ccccc2)CCN(C)C1` [1.3.3(2)·HCl], the inhibition at 10 µM amounted to 98% in assay [1] (read-out: 5-HT2C % inhibition); 103% in assay [2] (read-out: 5-HT6 % inhibition); 95% in assay [3] (read-out: 5-HT2B % inhibition); 99% in assay [5]; 31% in assay [4].

As for `CN1CCc2c(c3cc(F)ccc3n2Cc2ccccc2)C1` [1.9(3)·HCl], the inhibition at 10 µM in assay [1] (read-out: 5-HT2C % inhibition) stood at 100%; in assay [2] (read-out: 5-HT6 % inhibition), 89%; in assay [3] (read-out: 5-HT2B % inhibition) it was 95%; at human 5-HT7 receptor, 81%; in assay [5], 97%; in assay [4], 12%.

`CN1CCc2c(c3cc(F)ccc3n2C#Cc2ccccc2)C1` [1.1(2)]: the 5-HT1A % inhibition on recombinant human 5-HT1A turned out to be 30%. In addition, the 5-HT6 % inhibition in assay [2] is recorded as 95%. Moreover, the 5-HT7 % inhibition at human 5-HT7 receptor was determined as 59%. In assay [5], the 5-HT2A % inhibition is on record as 99%. The 5-HT1B % inhibition in assay [4] amounted to 6%.

Regarding `Cc1ccc2c(c1)c1c(n2CCc2ccccc2)CCCN(C)C1` [1.2.2(1-2)·HCl], the inhibition at 10 µM on recombinant human 5-HT1A is 20%; in assay [3] (setting [6]), 84%; at human 5-HT7 receptor it was 97%; in assay [5], 89%.

`Cc1ccc2c(c1)c1c(n2CCc2ccc(C(F)(F)F)cc2)CCN(C)C1` [1.1.2(1-18)·HCl]: the inhibition at 10 µM at recombinant human 5-HT1A was determined as 53%; in assay [1] (read-out: 5-HT2C % inhibition), 99%; in assay [2] (read-out: 5-HT6 % inhibition) it was 94%; in assay [3] (setting [6]), 87%; at human 5-HT7 receptor it was 103%; in assay [5], 100%. For the same compound, the inhibition at 10 µM in assay [4] is 45%.
